This is an account of results in patent publication US9938261B2, “Heterocyclic compounds and methods of use thereof” (AMBIT BIOSCIENCES CORPORATION, priority 2011, dated 2018).

Bounds are passed on as bounds.

Assay [1] addresses T1, PDGFRβ (Homo sapiens, UniProt P09619).
T1 construct: made in house
Description: Competition binding assay, PDGFRβ Kd. The procedure:
(§1) Competition binding assays used herein were developed, validated and performed as described in Fabian et al., Nature Biotechnology 2005, 23, 329-336. Kinases were produced as fusions to T7 phage (See, Fabian et al. or WO04/015142) or alternatively, the kinases were expressed in HEK-293 cells and subsequently tagged with DNA for PCR detection (See, WO08/005310). For the binding assays, streptavidin-coated magnetic beads were treated with biotinylated affinity ligands for 30 min at room temperature to generate affinity resins. The liganded beads were blocked with excess biotin and washed with blocking buffer (SeaBlock (Pierce), 1% BSA, 0.05% Tween 20, 1 mM DTT) to remove unbound ligand and to reduce non-specific binding. Binding reactions were assembled by combining kinase, liganded affinity beads, and test compounds in 1× binding buffer (20% SeaBlock, 0.17×PBS, 0.05% Tween 20, 6 mM DTT). Test compounds were prepared as 100× stocks in DMSO and diluted into the aqueous environment. Kds were determined using an eleven point threefold serial dilutions. DMSO or control compounds were was added to control assays lacking a test compound. Primary screen assays were performed in polypropylene 384-well plates in a final volume of 20-40 μL, while Kd determinations were performed in polystyrene 96-well plates in a final volume of 135 μL. The assay plates were incubated at room temperature with shaking for 1 hour to allow the binding reactions to reach equilibrium, and the affinity beads were washed extensively with wash buffer (1×PBS, 0.05% Tween 20) to remove unbound protein. The beads were then resuspended in elution buffer (1×PBS, 0.05% Tween […] non-biotinylated affinity ligand) and incubated at room temperature with shaking for 30 min. The kinase concentration in the eluates was measured by quantitative PCR.

In assay [2] the target is T2, CSF1R (Homo sapiens, UniProt P07333). The assay can be described thus: HEK293 CSF1R phosphorylation MSD assay. Type of assay: cell-based. Also on record: expressed in transfected cells; host or cells: HEK293. The note with it: 2 h compound, human M-CSF 50 ng/mL for 5 min; read-out: HEK293 pCSF1R M-CSF MSD:IC50. The procedure: The compounds disclosed herein were tested in a CSF1R phosphorylation assay to determine their cellular potency against CSF1R. A HEK293 cell line expressing CSF1R fused to FK506 binding protein (FKBP) as a molecular tag was generated. Inhibition of CSF1R kinase activity will prevent ligand-stimulated autophosphorylation of the CSF1R-FKBP in intact cells. Subsequent cell lysates are assayed in a sandwich ELISA employing the electrochemiluminescent Meso Scale Discovery (MSD) technology for the presence of the phosphorylated (p)CSF1R-FKBP. This assay determines the potency of compounds as CSF1R inhibitors by measuring the reduction in the amount of pCSF1R with increasing doses of compounds added to the cells prior to M-CSF stimulation.
On day one of the experiment, HEK293-CSF1R-FKPB cells, maintained in DMEM, with L-glutamine (Mediatech), 10% FBS, and 100 units/mL Penicillin/Streptomycin, were seeded at 50,000 cell/well in a volume of 100 μL per well in 96-well Cell Bind plates (Costar). The cells were cultured overnight at 37° C. under 5% CO2. To prepare the plates used in the MSD assay, a 330 nM biotin-FK506 (in TBS pH 7.2) solution was added at 30 μL per well to streptavidin-coated 96-well plates (MSD), and incubated overnight at room temperature, shaking at 500 rpm on an orbital shaker.
On day two, compounds diluted in DMSO were added to the cells in duplicate plates at 9 different concentrations with half-log intervals, plus DMSO only control, alongside a reference compound serving as a positive control. Final DMSO concentration was 0.5% in a volume of 200 μL per well. The compounds were allowed to incubate with the cells for 2 h at 37° C. under 5% CO2. At the end of the incubation, human M-CSF (R&D Systems) was added for 5 min to a final concentration of 50 ng/mL to stimulate CSF1R phosphorylation. Cells were lysed for 20 min, and the lysates were applied to the washed, FK506-coated MSD plates, and incubated overnight at 4° C. shaking at 500 rpm.
On day three, the MSD plates were washed, and the captured CSF1R-FKBP was assayed sequentially for phosphorylation using mouse anti-phosphotyrosine antibody (Millipore) and Sulfo-TAG goat anti-mouse IgG antibody (MSD), and detected on a Sector Imager 6000 instrument (MSD).
A single IC50 value for each compound was determined by averaging the IC50s of the duplicates calculated using Igor Pro 6 software, and represents the compound concentration that achieves a 50% inhibition of ligand-induced CSF1R phosphorylation compared to DMSO control.

Assay [3] concerns the target T3, FLT3 (Homo sapiens, UniProt P36888).
T3 construct: made in house
T3 sequence (P36888 27-993): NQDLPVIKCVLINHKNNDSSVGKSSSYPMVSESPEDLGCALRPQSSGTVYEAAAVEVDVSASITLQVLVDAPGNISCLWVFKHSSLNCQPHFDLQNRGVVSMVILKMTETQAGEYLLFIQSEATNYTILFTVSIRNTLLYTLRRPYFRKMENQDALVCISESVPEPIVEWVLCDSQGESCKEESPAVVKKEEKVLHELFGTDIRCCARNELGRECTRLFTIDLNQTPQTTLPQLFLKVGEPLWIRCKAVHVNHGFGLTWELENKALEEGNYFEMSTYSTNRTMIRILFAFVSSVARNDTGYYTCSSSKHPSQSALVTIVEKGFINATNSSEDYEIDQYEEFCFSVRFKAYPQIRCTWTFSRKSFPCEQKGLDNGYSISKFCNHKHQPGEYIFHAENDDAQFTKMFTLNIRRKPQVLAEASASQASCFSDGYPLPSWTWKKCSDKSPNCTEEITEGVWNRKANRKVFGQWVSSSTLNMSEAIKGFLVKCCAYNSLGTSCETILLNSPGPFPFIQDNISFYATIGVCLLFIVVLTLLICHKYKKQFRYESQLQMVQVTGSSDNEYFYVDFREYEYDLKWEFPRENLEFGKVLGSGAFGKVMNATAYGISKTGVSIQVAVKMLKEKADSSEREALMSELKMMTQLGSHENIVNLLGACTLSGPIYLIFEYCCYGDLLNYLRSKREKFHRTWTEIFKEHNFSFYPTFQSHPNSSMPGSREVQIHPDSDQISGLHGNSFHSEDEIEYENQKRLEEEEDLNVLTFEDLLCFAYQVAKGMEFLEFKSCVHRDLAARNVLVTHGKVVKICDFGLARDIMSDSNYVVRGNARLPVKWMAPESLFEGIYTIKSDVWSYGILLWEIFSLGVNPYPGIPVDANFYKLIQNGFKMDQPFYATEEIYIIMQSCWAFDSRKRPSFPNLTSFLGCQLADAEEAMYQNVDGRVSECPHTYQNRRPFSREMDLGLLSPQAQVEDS
Description: Competition binding assay, FLT3 Kd. As for the experimental part:
as §1

Assay [4] has as its system M-NFS-60 cells. The assay can be described thus: M-NFS-60 cell proliferation assay (Alamar Blue). The note with it: Mus musculus; 72 hours incubation, M-CSF 20 ng/mL; read-out: CSF1R M-NFS-60 CTB:IC50. Type of assay: cell-based, mouse. As for the experimental part: The compounds disclosed herein were tested in an M-NFS-60 cell proliferation assay to determine their cellular potency against CSF1R. M-NFS-60s are mouse monocytic cells that depend on the binding of the ligand M-CSF to its receptor, CSF1R, to proliferate. Inhibition of CSF1R kinase activity will cause reduced growth and/or cell death. This assay assesses the potency of compounds as CSF1R inhibitors by measuring the reduction of Alamar Blue reagent by viable cells.
On day one of the experiment, M-NFS-60 cells were maintained in RPMI complete medium (Omega Scientific) plus 10% FBS supplemented with 20 ng/mL of M-CSF (R&D Systems). 96-well TC-treated, flat bottom plates were seeded at 10,000 cell/well at a volume of 100 μL per well. The cells were cultured overnight at 37° C. under 5% CO2.
On day two, compounds were added to the cells at 9 different concentrations, with half-log intervals alongside a control reference compound serving as a positive control. Final DMSO concentration was kept at 0.5% for a final volume of 200 μL. The compounds were allowed to incubate with the cells for 72 hours at 37° C. under 5% CO2.
On day five of the experiment, 40 μl of Alamar Blue reagent was added to each well and allowed to incubate for 3 hours. Alamar Blue fluorescence was read using SoftMax Pro software at 560 nm (excitation) and 590 nm (emission). IC50s were generated as an average of duplicates and represents the concentration of test compound that achieves 50% inhibition of cellular proliferation compared to control.
On the technique in general: Resazurin is reduced to fluorescent resorufin, in cell work by metabolically active cells.

The target of assay [5] is T4, KIT (Homo sapiens, UniProt P10721).
T4 construct: made in house
The assay can be described thus: Competition binding assay, KIT Kd. As for the experimental part: as §1

For assay [6], the target named is T2, CSF1R. The assay can be described thus: Competition binding assay, CSF1R Kd. Also on record: made in house. The procedure:
as §1

T4 sequence (P10721 26-976): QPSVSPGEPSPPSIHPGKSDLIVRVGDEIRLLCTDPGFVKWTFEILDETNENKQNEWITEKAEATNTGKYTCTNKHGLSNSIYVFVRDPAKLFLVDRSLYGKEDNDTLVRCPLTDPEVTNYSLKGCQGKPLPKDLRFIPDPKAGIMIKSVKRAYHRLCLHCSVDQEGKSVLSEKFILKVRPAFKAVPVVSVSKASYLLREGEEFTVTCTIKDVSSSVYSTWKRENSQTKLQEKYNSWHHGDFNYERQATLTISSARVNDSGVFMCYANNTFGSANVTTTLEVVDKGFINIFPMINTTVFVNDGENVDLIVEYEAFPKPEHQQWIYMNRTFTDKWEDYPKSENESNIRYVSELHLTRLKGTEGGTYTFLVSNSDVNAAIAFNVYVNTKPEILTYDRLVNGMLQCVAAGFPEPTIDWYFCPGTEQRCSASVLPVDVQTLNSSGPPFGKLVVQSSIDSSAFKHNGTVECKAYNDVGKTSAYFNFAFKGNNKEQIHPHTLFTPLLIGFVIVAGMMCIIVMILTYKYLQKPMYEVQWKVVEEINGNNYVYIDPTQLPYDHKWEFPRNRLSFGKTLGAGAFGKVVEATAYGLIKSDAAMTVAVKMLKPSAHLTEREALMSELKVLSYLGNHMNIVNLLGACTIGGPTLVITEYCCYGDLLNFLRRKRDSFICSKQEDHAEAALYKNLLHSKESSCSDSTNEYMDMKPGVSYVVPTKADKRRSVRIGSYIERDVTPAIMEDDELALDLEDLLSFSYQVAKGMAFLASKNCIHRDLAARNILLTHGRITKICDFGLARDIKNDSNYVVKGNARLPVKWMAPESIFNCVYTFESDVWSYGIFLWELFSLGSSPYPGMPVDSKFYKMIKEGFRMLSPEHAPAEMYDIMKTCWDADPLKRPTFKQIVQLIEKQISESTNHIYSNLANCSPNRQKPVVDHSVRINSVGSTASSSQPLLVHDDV
T1 sequence (P09619 33-1106): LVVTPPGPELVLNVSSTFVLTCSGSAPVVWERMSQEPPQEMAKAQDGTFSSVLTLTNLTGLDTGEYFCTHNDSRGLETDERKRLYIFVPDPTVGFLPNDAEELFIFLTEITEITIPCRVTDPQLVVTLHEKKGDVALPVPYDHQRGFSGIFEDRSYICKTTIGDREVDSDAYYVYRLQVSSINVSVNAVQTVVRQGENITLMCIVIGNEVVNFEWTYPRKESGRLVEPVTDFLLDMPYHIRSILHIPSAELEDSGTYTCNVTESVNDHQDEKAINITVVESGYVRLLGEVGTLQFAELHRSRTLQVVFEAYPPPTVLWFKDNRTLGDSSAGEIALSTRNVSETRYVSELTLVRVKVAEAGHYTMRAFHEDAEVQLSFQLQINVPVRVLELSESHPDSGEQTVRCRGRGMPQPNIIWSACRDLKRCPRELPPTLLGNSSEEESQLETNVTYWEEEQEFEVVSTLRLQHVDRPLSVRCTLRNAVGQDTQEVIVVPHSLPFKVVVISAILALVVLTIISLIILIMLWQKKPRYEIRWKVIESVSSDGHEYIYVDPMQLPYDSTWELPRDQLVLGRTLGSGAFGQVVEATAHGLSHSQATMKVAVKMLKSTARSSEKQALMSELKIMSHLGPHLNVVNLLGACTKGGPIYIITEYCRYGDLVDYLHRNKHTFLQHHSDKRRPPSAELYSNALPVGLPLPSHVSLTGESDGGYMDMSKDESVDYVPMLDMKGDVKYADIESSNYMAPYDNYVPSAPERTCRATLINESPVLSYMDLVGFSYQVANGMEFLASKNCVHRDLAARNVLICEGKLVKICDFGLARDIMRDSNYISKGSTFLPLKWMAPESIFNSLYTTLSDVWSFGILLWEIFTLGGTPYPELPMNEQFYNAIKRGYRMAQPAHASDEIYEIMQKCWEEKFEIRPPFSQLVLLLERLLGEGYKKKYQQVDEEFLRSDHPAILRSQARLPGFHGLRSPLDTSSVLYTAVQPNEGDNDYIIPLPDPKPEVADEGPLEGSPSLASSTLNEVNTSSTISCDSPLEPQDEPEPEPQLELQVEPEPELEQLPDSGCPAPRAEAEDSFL
T2 sequence (P07333 20-972): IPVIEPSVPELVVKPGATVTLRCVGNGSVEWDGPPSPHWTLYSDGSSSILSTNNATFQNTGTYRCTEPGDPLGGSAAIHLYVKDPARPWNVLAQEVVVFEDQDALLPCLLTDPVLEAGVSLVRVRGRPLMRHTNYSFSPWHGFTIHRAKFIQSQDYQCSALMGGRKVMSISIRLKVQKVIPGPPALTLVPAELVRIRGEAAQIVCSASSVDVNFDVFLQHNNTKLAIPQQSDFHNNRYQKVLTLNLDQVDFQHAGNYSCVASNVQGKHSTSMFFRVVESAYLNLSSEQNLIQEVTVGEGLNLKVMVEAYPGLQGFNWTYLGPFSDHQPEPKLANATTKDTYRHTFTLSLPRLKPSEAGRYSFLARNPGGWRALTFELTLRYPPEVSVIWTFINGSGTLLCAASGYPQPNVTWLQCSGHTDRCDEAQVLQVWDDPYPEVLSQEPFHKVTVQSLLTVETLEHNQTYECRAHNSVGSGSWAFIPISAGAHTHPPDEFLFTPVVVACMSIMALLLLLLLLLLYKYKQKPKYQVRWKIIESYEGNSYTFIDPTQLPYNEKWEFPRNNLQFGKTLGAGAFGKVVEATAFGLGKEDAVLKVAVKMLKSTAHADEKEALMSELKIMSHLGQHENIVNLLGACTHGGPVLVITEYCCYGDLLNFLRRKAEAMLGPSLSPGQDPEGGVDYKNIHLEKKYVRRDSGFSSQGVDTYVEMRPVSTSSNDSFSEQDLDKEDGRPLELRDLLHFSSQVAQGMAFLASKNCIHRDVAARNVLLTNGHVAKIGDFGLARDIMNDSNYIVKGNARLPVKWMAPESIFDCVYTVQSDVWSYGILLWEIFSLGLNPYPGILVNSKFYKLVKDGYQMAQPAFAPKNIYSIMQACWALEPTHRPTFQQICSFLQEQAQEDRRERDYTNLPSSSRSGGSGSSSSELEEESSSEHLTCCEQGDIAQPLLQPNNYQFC

`O[C@@H]1CCCC[C@H]1Nc1nc2ccc(Cc3c[nH]c4ncccc34)cc2s1` [Example 17, (1R,2R)-2-((6-((1H-pyrrolo[2,3-b]pyridin-3-yl)methyl)benzo[d]thiazol-2-yl)amino)cyclohexanol]: the Kd in assay [1] was 50 to 500 nM; in assay [3] it was 200 to 1000 nM; in assay [5] it was > 2000 nM; in assay [6], 5 to 20 nM. Moreover, the results for the IC50 in assay [2] and in assay [4] were 200 to 500 nM and 400 to 1500 nM, respectively.
For `COc1cc2ncn(Cc3ccc4nc(NC5CCCCC5)sc4c3)c2cc1OC` [Example 18, N-cyclohexyl-6-((5,6-dimethoxy-1H-benzo[d]imidazol-1-yl)methyl)benzo[d]thiazol-2-amine], the Kd in assay [1] is ≤ 50 nM; in assay [3] it was ≤ 200 nM; in assay [5] it was ≤ 100 nM; in assay [6], ≤ 5 nM. Also, the IC50 in assay [2] is ≤ 50 nM; in assay [4], 50 to 400 nM.
For `COc1cc2ncn(Cc3ccc4nc(N[C@@H]5c6ccccc6C[C@H]5O)sc4c3)c2cc1OC` [Example 19, (1R,2R)-1-((6-((5,6-dimethoxy-1H-benzo[d]imidazol-1-yl)methyl)benzo[d]thiazol-2-yl)amino)-2,3-dihydro-1H-inden-2-ol], the Kd in assay [1] is 50 to 500 nM; in assay [3], 1000 to 5000 nM; in assay [5], 100 to 500 nM; in assay [6], ≤ 5 nM. Moreover, the values for the IC50 in assay [2] and in assay [4] were 50 to 200 nM and 50 to 400 nM, respectively.
On to `COc1cc2ncn(Cc3ccc4nc(NCc5ccncc5)sc4c3)c2cc1OC` [Example 21, 6-((5,6-dimethoxy-1H-benzo[d]imidazol-1-yl)methyl)-N-(pyridin-4-ylmethyl)benzo[d]thiazol-2-amine], for which the Kd in assay [1] is > 2000 nM; in assay [3], > 5000 nM; in assay [5] it was > 2000 nM; in assay [6] it was > 50 nM. Moreover, the IC50 in assay [2] is 200 to 500 nM; in assay [4] it was > 1500 nM.
As to `COc1cc2ncn(Cc3ccc4nc(Nc5ccccc5)sc4c3)c2cc1OC` [Example 22, 6-((5,6-dimethoxy-1H-benzo[d]imidazol-1-yl)methyl)-N-phenylbenzo[d]thiazol-2-amine], the Kd is > 2000 nM in assay [1], 1000 to 5000 nM in assay [3], 100 to 500 nM in assay [5] and 5 to 20 nM in assay [6]. Besides, the values for the IC50 in assay [2] and in assay [4] were 50 to 200 nM and 400 to 1500 nM, respectively.
In the case of `COc1ccc2ncn(Cc3ccc4nc(N[C@@H]5CCCC[C@H]5O)sc4c3)c2n1` [Example 23, (1R,2R)-2-((6-((5-methoxy-3H-imidazo[4,5-b]pyridin-3-yl)methyl)benzo[d]thiazol-2-yl)amino)cyclohexanol], the Kd in assay [1] is 50 to 500 nM; in assay [3] it was ≤ 200 nM; in assay [5] it was ≤ 100 nM; in assay [6] it was ≤ 5 nM. For the same compound, the IC50 was ≤ 50 nM in assay [2] and 50 to 400 nM in assay [4].
In the case of `COc1cc2ncn(Cc3ccc4nc(NC5CCN(C(C)=O)CC5)sc4c3)c2cc1OC` [Example 24, 1-(4-((6-((5,6-dimethoxy-1H-benzo[d]imidazol-1-yl)methyl)benzo[d]thiazol-2-yl)amino)piperidin-1-yl)ethanone acetic acid], the Kd was > 2000 nM in assay [1], > 5000 nM in assay [3], > 2000 nM in assay [5] and > 50 nM in assay [6]. The IC50 is > 500 nM in assay [2] and > 1500 nM in assay [4].
For the compound `Nc1nc2cccnc2n1Cc1ccc2nc(N[C@@H]3CCCC[C@H]3O)sc2c1` [Example 26, 3-((2-(((1R,2R)-2-hydroxycyclohexyl)amino)benzo[d]thiazol-6-yl)methyl)-3H-imidazo[4,5-b]pyridin-2-aminium acetic acid], the Kd was > 2000 nM in assay [1], 200 to 1000 nM in assay [3], > 2000 nM in assay [5] and 5 to 20 nM in assay [6]. Further, the IC50 in assay [2] is > 500 nM; in assay [4], > 1500 nM.
As to `CCOc1ccccc1Nc1nc2ccc(Cn3cnc4cc(OC)c(OC)cc43)cc2s1` [Example 27, 6-((5,6-dimethoxy-1H-benzo[d]imidazol-1-yl)methyl)-N-(2-ethoxyphenyl)benzo[d]thiazol-2-amine], the Kd in assay [1] lay within 50 to 500 nM; in assay [3], 1000 to 5000 nM; in assay [5] it was 100 to 500 nM; in assay [6] it was 5 to 20 nM. Besides, the figures for the IC50 in assay [2] and in assay [4] were 50 to 200 nM and 50 to 400 nM, respectively.

The Kd is the equilibrium constant for the complex coming apart. The IC50 is the concentration that inhibits the measured activity by half.
